Consider five molecules from EP0603755A2, “Cephalosporin salts and processes for their preparation” (HOECHST AKTIENGESELLSCHAFT, priority 1992, dated 1994).

A short description of data set [1]: Pharmacokinetics after intramuscular administration; antibiotic content in blood/serum by agar diffusion test. It is filed as in vivo, Hund. From the text:
Zur Bestimmung der pharmakokinetischen Eigenschaften der erfindungsgemäßen Cephalosporin-Articainsalze wurden unter […] Untersuchungen an Mäusen und Hunden durchgeführt. Die […] und die korrespondierenden Alkalisalze der Cephalosporine wurden in therapeutisch üblichen Dosierungen intramuskulär verabreicht. Zu festgelegten Zeitpunkten nach der Injektion des Antibiotikums wurden den Versuchstieren Blutproben entnommen und der Antibiotika-Gehalt im Blut bzw. Serum mit Hilfe des Agardiffusionstestes bestimmt. Die pharmakokinetischen […] Computerprogramms ermittelt.
On the technique in general: A growth-free zone around the sample is the usual read-out of agar diffusion tests.

Data set [2] can be described thus: Qualitative solubility of the salts (observed on crystallisation from water). Conditions: in water, partly relative to the salt of the other Articain enantiomer.

As for `CCCCOC(=O)c1scc(C)c1NC(=O)C(C)NCCC.CO/N=C(\C(=O)N[C@@H]1C(=O)N2C(C(=O)O)=C(COC(C)=O)CS[C@H]12)c1csc(N)n1` [Beispiel 10, Cefotaximsalz von (+ )n-Butyl 4-methyl-3(2-n-propylaminopropionamido) thiophen-2-carboxylat], the Halbwertszeit in data set [1] (Hund, intramuscular application, blood/serum level by agar diffusion test) is recorded as 6,6 Stunden.
As for `CCCNC(C)C(=O)Nc1c(C)csc1C(=O)OC.CON=C(C(=O)NC1C(=O)N2C(C(=O)O)=CCSC12)c1csc(N)n1` (single isomer, unassigned; (-)) [(-)-Articain-Ceftizoximsalz], in data set [2], the Löslichkeit result was “leichter löslich in Wasser”.
Regarding `CO/N=C(\C(=O)N[C@@H]1C(=O)N2C(C(=O)O)=C(COC(C)=O)CS[C@H]12)c1csc(N)n1` [Cefotaxim, reference compound], the half-life in data set [1] (dog, im, Hund, intramuscular application, blood/serum level by agar diffusion test, read-out: Halbwertszeit (converted)) was 48 min.
As for `CCCNC(C)C(=O)Nc1c(C)csc1C(=O)OC.CON=C(C(=O)NC1C(=O)N2C(C(=O)O)=C(COC(C)=O)CSC12)c1csc(N)n1` (single isomer, unassigned; (+)) [(+)-Articain-Cefotaxim, ( +)-Articain-Cefotaximsalz], the Halbwertszeit in data set [1] (dog, in vivo, im) is reported as 4,1 Stunden.
On to `CCCNC(C)C(=O)Nc1c(C)csc1C(=O)OC.CON=C(C(=O)NC1C(=O)N2C(C(=O)O)=C(COC(N)=O)CSC12)c1ccco1` (single isomer, unassigned; (+)) [(+) Articain-Cefuroximsalz], for which the Löslichkeit entry in data set [2] is “schwerlösliche”.
